Laboratory results published in US20060004088A1, “Furan derivatives for preventing and curing osteoporosis and pharmaceutical compositions containing the same” (OCT INC., priority 2002, published 2006).

Test system: osteoclast pregenitor cells
Experiment: Inhibition rates of furan derivatives versus osteoclast formation (TRAP staining)
Assay type: cell-based, mice
Conditions: TRAP-positive multinucleated cells, untreated control set as 100%
Experimental: First, bone marrow cells were isolated, as follow. After sacrificing 7-9 week female mice by cervical dislocation, femur and tibia were excised aseptically while removing attached soft tissues. After cutting both ends of long bones, 1 ml of an enzyme solution, containing 0.1% collagenase (Gibco), 0.05% trypsin and 0.5 mM EDTA (Gibco), was injected to the bone marrow cavity at one end using a syringe with a 26-guage needle, and bone marrow was then collected. After shaking the recovered bone marrow for 30 min, bone marrow cells were collected, and cultured in α-minimum essential medium (α-MEM) supplemented with 10% FBS for 24 hrs. Then, non-adherent cells were collected, which are osteoclast pregenitors, aliquotted onto culture plates at a density of 2×10^5 cells per well, and cultured for 8 days in α-MEM supplemented with 20 ng/ml of macrophage-colony stimulating factor (M-CSF, Peprotech, USA) and 30 ng/ml RANKL (Peprotech, USA). During the 8 days of culturing, the cells were treated with the Compound 1. Thereafter, osteoclast formation was investigated by fixing the cultured cells and then carrying out TRAP staining, as described in the following Experimental Example 2.2. In addition, resorption activity of osteoclasts was investigated by measuring the absorption area after removing osteoclasts in cultures in calcium phosphate-coated plates, as described in Experimental Example 2.3, below.
After cell culture, the adherent cells were washed with PBS, and TRAP staining was performed, as follows. After being fixed with citrate-acetate-formaldehyde for 5 min, the cells were incubated for 1 hr in acetate buffer (prewarmed at 37° C., pH 5.0) containing naphthol AS-BI phosphate, fast Garnet GBC and 7 mM tartrate buffer (pH 5.0). TRAP-positive multinucleated cells having 3 or more nuclei were considered as osteoclasts.
Osteoclast pregenitor cells were isolated, and their differentiation to mature osteoclasts was induced, according to the same method as in the Experimental Example 2-1, while treated with each of the furan derivatives of the present invention. According to the same method as in the Experimental Example 2-2, TRAP staining performed, and TRAP-positive multinucleated cells were counted. An inhibition rate of each furan derivative against osteoclast formation was expressed as percentage, wherein the number of stained cells in a control not treated the furan derivative was arbitrarily set as 100% (Tables 14 to 16).

| SMILES | Inhibition rate against osteoclast formation, % (0.1 μM) | Inhibition rate against osteoclast formation, % (1 μM) | Inhibition rate against osteoclast formation, % (10 μM) |
| --- | --- | --- | --- |
| Cc1cc(OCc2ccc(C(=O)O)o2)ccc1Cl [Compound 119] | 0% | 0% | 37.02% |
| O=C(O)c1ccc(CSCc2ccccc2)o1 [Compound 120] | 0% | 0% | 27.99% |
| CCC(C)NC(=O)c1ccc(COc2ccc(I)cc2)o1 (stereo not drawn) [Compound 121] | 0% | 0% | 7.12% |
| CCN(CC)C(=O)c1ccc(COc2ccc(Cl)c(C)c2)o1 [Compound 123] | 0% | 6.9% | 100% |
| CC1CCN(C(=O)c2ccc(COc3cc(Cl)ccc3Cl)o2)CC1 [Compound 124] | 0% | 0% | 7.62% |
| CC(C)(C)NC(=O)c1ccc(COCC(F)(F)F)o1 [Compound 127] | 0% | 0% | 13.82% |
| O=C(c1ccc(COc2ccccc2Br)o1)N1CCCCCC1 [Compound 128] | 6.54% | 0% | 97.65% |
| CC(C)(C)NC(=O)c1ccc(COc2ccccc2Br)o1 [Compound 129] | 0% | 0% | 2.2% |
| CC(C)NC(=O)c1ccc(CNc2cc(Cl)ccc2Cl)o1 [Compound 130] | 0% | 0% | 7.84% |
| Cc1cc(OCc2ccc(C(=O)N3CCOCC3)o2)ccc1Cl [Compound 132] | 0% | 0% | 62.30% |
| O=C(c1ccc(COc2cc(Cl)ccc2Cl)o1)N1CCCCCC1 [Compound 133] | 0% | 0% | 0.5% |
| CC(C)(C)c1ccc(OCc2ccc(C(=O)NC3CCCCC3)o2)cc1 [Compound 134] | 0% | 0% | 21.42% |
| CC(C)(C)c1ccc(OCc2ccc(C(=O)Nc3ccccc3)o2)cc1 [Compound 136] | 0% | 0% | 2.49% |
| O=C(Nc1ccccc1)c1ccc(COc2ccc3ccccc3c2)o1 [Compound 137] | 0% | 0% | 38.3% |
| O=C(Nc1cccc(Br)c1)c1ccc(COc2ccc(F)cc2)o1 [Compound 140] | 0% | 0% | 11.93% |
| O=C(Nc1ccc(F)cc1)c1ccc(COc2cccc(Cl)c2)o1 [Compound 141] | 0% | 0% | 13.01% |
| COc1ccc(NC(=O)c2ccc(COc3ccccc3Cl)o2)cc1Cl [Compound 142] | 0% | 0% | 32.17% |
| O=C(Nc1ccc(F)c(F)c1)c1ccc(COc2ccc(I)cc2)o1 [Compound 143] | 0% | 0% | 10.63% |
| CCOc1ccccc1NC(=O)c1ccc(COc2ccc(Cl)cc2[N+](=O)[O-])o1 [Compound 144] | 0% | 21.95% | 85.25% |
| COc1ccc(NC(=O)c2ccc(COc3cc(Cl)ccc3Cl)o2)c(OC)c1 [Compound 145] | 0% | 5.98% | 83.3% |

| SMILES | Inhibition rate against osteoclast formation, % (0.1 μM) | Inhibition rate against osteoclast formation, % (1 μM) | Inhibition rate against osteoclast formation, % (10 μM) |
| --- | --- | --- | --- |
| O=C(Nc1ccc(Br)cc1)c1ccc(COc2ccc(I)cc2)o1 [Compound 146] | 0% | 0% | 10.03% |
| Cc1ccc(OCc2ccc(C(=O)Nc3ccc(F)cc3)o2)c([N+](=O)[O-])c1 [Compound 147] | 6.11% | 19.4% | 99.72% |
| NC(=O)c1ccc(NC(=O)c2ccc(COc3cc(Cl)ccc3Cl)o2)cc1 [Compound 148] | 0% | 3.05% | 47.55% |
| COc1ccc(NC(=O)c2ccc(COc3ccc(F)cc3)o2)c([N+](=O)[O-])c1 [Compound 149] | 0% | 10.32% | 78.34% |
| COc1ccc(NC(=O)c2ccc(COc3ccc(Cl)c(C)c3)o2)cc1 [Compound 150] | 0% | 0% | 19.12% |
| O=C(Nc1cc(F)ccc1F)c1ccc(COc2cccc(Cl)c2)o1 [Compound 151] | 0% | 0% | 19.8% |
| COC(=O)c1ccc(C)c(NC(=O)c2ccc(COc3ccc(I)cc3)o2)c1 [Compound 152] | 5.37% | 0.08% | 37.56% |
| Cc1ccc(F)c(NC(=O)c2ccc(COc3ccc(C)cc3[N+](=O)[O-])o2)c1 [Compound 155] | 0% | 0% | 27.92% |
| O=C(Nc1cccc(Cl)c1Cl)c1ccc(COc2ccccc2[N+](=O)[O-])o1 [Compound 156] | 13.01% | 18.26% | 98.48% |
| COc1ccccc1NC(=O)c1ccc(COc2cc(C)ccc2C)o1 [Compound 157] | 4.87% | 10.71% | 97.46% |
| Cc1ccc(F)c(NC(=O)c2ccc(COc3ccccc3[N+](=O)[O-])o2)c1 [Compound 158] | 0% | 0% | 23.57% |
| CC(=O)c1ccc(NC(=O)c2ccc(COc3cccc4ccccc34)o2)cc1 [Compound 160] | 0% | 0% | 38.96% |
| O=C(Nc1cc(F)ccc1F)c1ccc(COc2ccccc2Cl)o1 [Compound 161] | 0% | 0% | 11.33% |
| CCc1cccc(NC(=O)c2ccc(COc3ccc(F)cc3)o2)c1 [Compound 163] | 0% | 0% | 51.2% |
| CCCc1ccc(OCc2ccc(C(=O)Nc3ccc(OC)c(OC)c3)o2)cc1 [Compound 164] | 0% | 0% | 30.52% |
| CCOc1ccc(OCc2ccc(C(=O)NC(C)(C)C)o2)cc1 [Compound 165] | 12.35% | 28.76% | 88.75% |
| COc1ccccc1NC(=O)c1ccc(COc2ccccc2OC)o1 [Compound 166] | 0% | 0% | 1.08% |
| COC(=O)c1ccccc1NC(=O)c1ccc(COc2ccc(Cl)cc2Cl)o1 [Compound 167] | 0% | 22.42% | 96.47% |
| CCc1ccc(OCc2ccc(C(=O)Nc3cc(C)cc(C)c3)o2)cc1 [Compound 169] | 0% | 0% | 21.04% |
